The results in this text go back to patent US7754741B2, “Pyridine derivatives as fungicidal compounds” (Bayer Cropscience S.A., priority 2003, dated 2010).

The subject of one experiment is Peronospora brassicae. Briefly: In vivo test on Peronospora brassicae (cabbage downy mildew). The following applies: 330 ppm; comparison compounds of WO 01/11965. As for the experimental part:
In Vivo Test on Peronospora brassicae (Cabbage Downy Mildew)
(§1) The active ingredient tested is prepared by potter homogenisation in a concentrated suspension type formulation at 100 g/l. This suspension is then diluted with water to obtain the desired active material concentration.
Cabbage plants (Eminence variety) in starter cups, sown on a 50/50 peat soil-pozzolana substrate and grown at 18-20° C., are treated at the cotyledon stage by spraying with the aqueous suspension described above.
(§2) Plants, used as controls, are treated with an aqueous solution not containing the active material.
After 24 hours, the plants are contaminated by spraying them with an aqueous suspension of Peronospora brassicae spores (50,000 spores per ml). The spores are collected from infected plant.
The contaminated cabbage plants are incubated for 5 days at 20° C., under a humid atmosphere.
Grading is carried out 5 days after the contamination, in comparison with the control plants.
Under these conditions, good (at least 50%) to total protection is observed at a dose of 330 ppm with the following compounds :B-6,B-7, J-46, J-59.

The next experiment relates to Botrytis cinerea. The experiment is described as follows: In vivo test on Botrytis cinerea (cucumber grey mould). The conditions noted are these: for efficacy against Botrytis cinerea: 330 ppm, comparison compounds of WO 01/11965; for pest or weed control at 330 ppm: Botrytis cinerea, cucumber plants sprayed 24 hours before contamination, grading 5/7 days after contamination vs control plants, read-out: protection (good (at least 50%) to total). As for the experimental part: In Vivo Test on Botrytis cinerea (Cucumber Grey Mould)
as §1
Cucumber plants (Marketer variety) in starter cups, sown on a 50/50 peat soil-pozzolana substrate and grown at 18-20° C., are treated at the cotyledon Z11 stage by spraying with the aqueous suspension described above. Plants, used as controls, are treated with an aqueous solution not containing the active material.
After 24 hours, the plants are contaminated by depositing drops of an aqueous suspension of Botrytis cinerea spores (150,000 spores per ml) on upper surface of the leaves. The spores are collected from a 15-day-old culture and are suspended in a nutrient solution composed of: • 20 g/L of gelatin • 50 g/L of cane sugar • 2 g/L of NH4NO3 • 1 g/L of KH2PO4
The contaminated cucumber plants are settled for 5/7 days in a climatic room at 15-11° C. (day/night) and at 80% relative humidity.
Grading is carried out 5/7 days after the contamination, in comparison with the control plants. Under these conditions, good (at least 50%) to total protection is observed at a dose of 330 ppm with the following compounds :B-7, B-8, B-13, B-14, C-3, C-12, C-13, C-14, C-15, C-16, D-4, D-5, E-4, H-1, H-2, H-4, H-7, H-9, H-22, J-1, J-2, J-3, J-19, J-31, J-32, J-33, J-34, J-35, J-37, J-39, J-43, J-44, R-1, R-10, R-23, R-24, R-26, R-31, V-1, V-8.

The next experiment has as its system Alternaria brassicae. Briefly: In vivo test on Alternaria brassicae (leaf spot of crucifers). The conditions noted are these: for efficacy against Alternaria brassicae: 330 ppm, comparison compounds of WO 01/11965; for pest or weed control at 330 ppm: Alternaria brassicae, radish plants sprayed 24 hours before contamination, grading 6 to 7 days after contamination vs control plants, read-out: protection (good (at least 50%) to total). As for the experimental part:
In Vivo Test on Alternaria brassicae (Leaf Spot of crucifers)
as §1
Radish plants (Pernot variety) in starter cups, sown on a 50/50 peat soil-pozzolana substrate and grown at 18-20° C., are treated at the cotyledon stage by spraying with the aqueous suspension described above.
as §2
After 24 hours, the plants are contaminated by spraying them with an aqueous suspension of Alternaria brassicae spores (40,000 spores per cm^3). The spores are collected from a 12-13-day-old culture.
The contaminated radish plants are incubated for 6-7 days at about 18° C., under a humid atmosphere.
Grading is carried out 6 to 7 days after the contamination, in comparison with the control plants.

A further experiment concerns Pyrenophora teres. The experiment is described as follows: In vivo test on Pyrenophora teres (barley net blotch). The following applies: for efficacy against Pyrenophora teres: 330 ppm, comparison compounds of WO 01/11965; for pest or weed control at 330 ppm: Pyrenophora teres, 288 h, barley plants sprayed 24 hours before contamination, grading 12 days after contamination vs control plants, read-out: protection (good (at least 50%) to total). As for the experimental part: In Vivo Test on Pyrenophora teres (Barley Net Blotch)
as §1
Barley plants (Express variety) in starter cups, sown on a 50/50 peat soil-pozzolana substrate and grown at 12° C., are treated at the 1-leaf stage (10 cm tall) by spraying with the aqueous suspension described above. Plants, used as controls, are treated with an aqueous solution not containing the active material.
After 24 hours, the plants are contaminated by spraying them with an aqueous suspension of Pyrenophora teres spores (12,000 spores per ml). The spores are collected from a 12-day-old culture The contaminated barley plants are incubated for 24 hours at about 20° C. and at 100% relative humidity, and then for 12 days at 80% relative humidity.

The test system of experiment [1] is Erysiphe graminis f. sp. tritici. Briefly: In vivo test on Erysiphe graminis f. sp. tritici (wheat powdery mildew). The conditions noted are these: Blumeria graminis, wheat plants sprayed 24 hours before contamination, grading 7 to 14 days after contamination vs control plants, read-out: protection (good (at least 50%) to total). As to the method:
In Vivo Test on Erysiphe graminis f. sp. tritici (Wheat Powdery Mildew)
as §1
Wheat plants (Audace variety) in starter cups, sown on 50/50 peat soil-pozzolana substrate and grown at 12° C., are treated at the 1-leaf stage (10 cm tall) by spraying with the aqueous suspension described above.
as §2
After 24 hours, the plants are contaminated by dusting them with Erysiphe graminis f. sp. tritici spores, the dusting being carried out using diseased plants. Grading is carried out 7 to 14 days after the contamination, in comparison with the control plants.
Under these conditions, good (at least 50%) to total protection is observed at a dose of 330 ppm with the following compounds: A-4, B-4, B-8, C-2, C-3, C-12, D-4, F-1, H-1, H-2, H-4, H-20, I-3, J-1, J-2, J-3, J-19, J-20, J-31, J-37, J-40, J-55, J-57, J-58, J-59, J-61, K-1, M-5, M-6, R-1, R-10, R-26, R-29, V-7.

As for `CNC(=O)C(Cc1ncc(C(F)(F)F)cc1Cl)NC(=O)c1ccc(-c2ccccc2)cc1` (centres unmarked) [compound 316, N-{1-methylcarbamoyl-2-[3-chloro-5-(trifluoromethyl)-2-pyridinyl]ethyl}-4-phenylbenzamide, reference compound], the “efficacy against Peronospora parasitica” value in the experiment with Peronospora brassicae is on record as “no efficacy”. Moreover, in the experiment on Botrytis cinerea, the “efficacy against Botrytis cinerea” value was “no efficacy”. The “efficacy against Alternaria brassicae” value with Alternaria brassicae is “poor efficacy”. Moreover, the “efficacy against Pyrenophora teres” value with Pyrenophora teres is “poor efficacy”.
As to `CCNC(=O)C(Cc1ncc(C(F)(F)F)cc1Cl)NC(=O)c1ccccc1Br` (centres unmarked) [compound 310, N-{1-ethylcarbamoyl-2-[3-chloro-5-(trifluoromethyl)-2-pyridinyl]ethyl}-2-bromobenzamide, reference compound], the “efficacy against Peronospora parasitica” value in the experiment on Peronospora brassicae is recorded as “no efficacy”. Moreover, in the experiment with Botrytis cinerea, the “efficacy against Botrytis cinerea” value is “no efficacy”. Moreover, the “efficacy against Alternaria brassicae” value with Alternaria brassicae is listed as “poor efficacy”. For the same molecule, the “efficacy against Pyrenophora teres” value with Pyrenophora teres is recorded as “poor efficacy”.
Regarding `O=C(NCCc1ncc(C(F)(F)F)cc1Cl)c1cccnc1Br` [Compound R-26], the pest or weed control at 330 ppm (in experiment [1]; in the experiment on Botrytis cinerea; with Alternaria brassicae; in the experiment on Pyrenophora teres) was not below 50% each time.
In the case of `Cn1cc(C(=O)NCCc2ncc(C(F)(F)F)cc2Cl)c(C(F)F)n1` [Compound J-3], the pest or weed control at 330 ppm (in experiment [1]; with Botrytis cinerea; in the experiment on Alternaria brassicae; in the experiment on Pyrenophora teres) was not below 50% throughout.
`CCNC(=O)C(Cc1ncc(C(F)(F)F)cc1Cl)NC(=O)c1cccc([N+](=O)[O-])c1` (centres unmarked) [compound 307, N-{1-ethylcarbamoyl-2-[3-chloro-5-(trifluoromethyl)-2-pyridinyl]ethyl}-3-nitrobenzamide, reference compound]: the “efficacy against Peronospora parasitica” value in the experiment with Peronospora brassicae is given as “no efficacy”. The “efficacy against Botrytis cinerea” value in the experiment on Botrytis cinerea was “no efficacy”. The “efficacy against Alternaria brassicae” value in the experiment with Alternaria brassicae is reported as “poor efficacy”. Moreover, in the experiment with Pyrenophora teres, the “efficacy against Pyrenophora teres” value is given as “poor efficacy”.
Turning to `O=C(Cc1cccs1)NCc1ncc(C(F)(F)F)cc1Cl` [compound 101, N-{[3-chloro-5-(trifluoromethyl)-2-pyridinyl]-methyl}-5-thienylacetamide, reference compound], the “efficacy against Peronospora parasitica” value in the experiment on Peronospora brassicae was “no efficacy”. Besides, the “efficacy against Botrytis cinerea” value in the experiment on Botrytis cinerea was “no efficacy”. Also, in the experiment with Alternaria brassicae, the “efficacy against Alternaria brassicae” value is on record as “poor efficacy”.
With `Cc1ncccc1C(=O)NCCc1ncc(C(F)(F)F)cc1Cl` [Compound R-10], the pest or weed control at 330 ppm (in experiment [1]; in the experiment with Botrytis cinerea; with Alternaria brassicae; in the experiment on Pyrenophora teres) was not below 50% throughout.
In the case of `O=C(NCCc1ncc(C(F)(F)F)cc1Cl)c1ccsc1I` [Compound D-4], the pest or weed control at 330 ppm (in experiment [1]; with Botrytis cinerea; in the experiment with Alternaria brassicae; in the experiment on Pyrenophora teres) was not below 50% in each case.
With `CC1=[SH]C(C(=O)NCCc2ncc(Cl)cc2Cl)=C(C(F)(F)F)N1` [Compound H-4], the pest or weed control at 330 ppm (in experiment [1]; with Botrytis cinerea; in the experiment on Alternaria brassicae; with Pyrenophora teres) was not below 50% each time.
